We go through two compounds from US20240368232A1, “ANTIVIRAL LARAZOTIDE DERIVATIVES” (priority 2021, published 2024).

Where two headings read alike, the source gives them in different places. Square brackets hold non-standard residues; d marks the D form. Peptide text beside a SMILES is read from it.

The test system of experiment [1] is SARS-COV-2 SA (RG) strain. The experiment is described as follows: microbe, parasite or virus in culture. As to conditions: Severe acute respiratory syndrome coronavirus 2, Vero, read-out: Antiviral activity EC50 SA (RG) strain Vero cells.
Experiment [2] relates to SARS-COV-2 SA (RG) strain.

On to `CCC(CC)COC(=O)[C@H](C)N[P@](=O)(OC[C@H]1O[C@@](C#N)(c2ccc3c(N)ncnn23)[C@H](O)[C@@H]1O)Oc1ccccc1` [Remdesivir], for which the concentration for a half-maximal effect (EC50) (usually the midpoint of the concentration-response curve) in experiment [1] stood at 840 nM.
`CC(=O)NCC(=O)N[C@H](Cc1ccccc1)C(=O)N[C@H](C=O)Cc1c[nH]cn1` [TRIP 5] (Ac-Gly-[dF]-His-aldehyde) gave an EC50 in experiment [2] greater than 100000 nM.
